{"source": "ChEMBL document CHEMBL5154933", "about": "“Development of Lipo-γ-AA Peptides as Potent Antifungal Agents” (J Med Chem, 2022)", "key": {"[1]": {"assay": "Selectivity ratio of HC50 for hemolytic activity in human RBC to MIC for antifungal activity against Candida albicans CA17", "type": "toxicity", "details": "red blood cells (erythrocytes)"}, "Cryptococcus neoformans [2]": {"test_system": "Cryptococcus neoformans", "assay": "Antifungal activity against Cryptococcus neoformans H99 assessed as fungal growth inhibition by broth microdilution assay", "type": "functional"}, "Cell membrane [3]": {"test_system": "Cell membrane", "assay": "Induction of membrane permeabilization in Candida albicans SC5314 assessed as damage and rupture of fungal cell membrane at 8 times MIC incubated for 4 hrs by scanning electron microscopic analysis", "type": "subcellular"}, "[4]": {"assay": "Selectivity ratio of HC50 for hemolytic activity in human RBC to MIC for antifungal activity against Cryptococcus neoformans 5-FC", "type": "toxicity", "details": "red blood cells (erythrocytes)"}, "[5]": {"assay": "Selectivity ratio of HC50 for hemolytic activity in human RBC to MIC for antifungal activity against Aspergillus fumigatus shjt40", "type": "toxicity", "details": "red blood cells (erythrocytes)"}, "Candida parapsilosis": {"test_system": "Candida parapsilosis", "assay": "Antifungal activity against Candida parapsilosis ATCC 22019 assessed as fungal growth inhibition by broth microdilution assay", "type": "functional", "details": "Lodderomyces parapsilosis"}, "Candida albicans [6]": {"test_system": "Candida albicans", "assay": "Increase in intracellular fluconazole accumulation in fluconazole-resistant Candida albicans CARG5 at 1 ug/ml incubated for 1 hr by fluorescence based analysis", "type": "functional, cell-based", "details": "dose 1.0 µg/ml"}, "Candida albicans [7]": {"test_system": "Candida albicans", "assay": "Antifungal activity against Candida albicans CARG5 assessed as fungal growth inhibition by broth microdilution assay", "type": "functional"}, "[8]": {"assay": "Cytotoxicity against HEK293T cells measured after 48 hrs by CCK8 assay", "type": "toxicity, cell-based, HEK-293T", "details": "human"}, "Candida albicans [9]": {"test_system": "Candida albicans", "assay": "Antifungal activity against Candida albicans SC5314 assessed as fungal growth inhibition by broth microdilution assay", "type": "functional"}, "Candida albicans [10]": {"test_system": "Candida albicans", "assay": "Effect on efflux pump function in Candida albicans CARG5 assessed as increase in Nile red fluorescence at 1 ug/ml incubated for 1 hr by FACScan flow cytometer analysis", "type": "functional", "details": "dose 1.0 µg/ml"}, "Cell membrane [11]": {"test_system": "Cell membrane", "assay": "Induction of membrane permeabilization in Candida albicans SC5314 assessed as distruption of fungal cell membrane by measuring PI positive cells at 8 times MIC measured after 1 hrs by propidium iodide and DAPI staining based fluorescence microscopic analysis", "type": "subcellular"}, "[12]": {"assay": "Hemolytic activity in human RBC incubated for 1 hr by microplate reader method", "type": "toxicity, cell-based, Erythrocyte", "details": "red blood cells (erythrocytes)"}, "Candida albicans [13]": {"test_system": "Candida albicans", "assay": "Synergistic antifungal activity against fluconazole-resistant Candida albicans CARG5 assessed as reduction in fluconazole MIC at 1 microg/ml incubated for 24 hrs by checkerboard broth microdilution assay ( Rvb = > 128 microg/ml)", "type": "functional", "details": "dose 1 µg/ml"}, "[14]": {"assay": "Selectivity ratio of HC50 for hemolytic activity in human RBC to MIC for antifungal activity against Candida albicans 28A", "type": "toxicity", "details": "red blood cells (erythrocytes)"}, "Candida albicans [15]": {"test_system": "Candida albicans", "assay": "Potentiation of antifungal activity against fluconazole-sensitive Candida albicans YEM13 overexpressing efflux pump MDR1 gene assessed as fold reduction in fluconazole MIC at 1 ug/ml incubated for 24 hrs by checkerboard broth microdilution assay", "type": "functional", "details": "dose 1 µg/ml"}, "Pichia kudriavzevii": {"test_system": "Pichia kudriavzevii", "assay": "Antifungal activity against Candida krusei ATCC6258 assessed as fungal growth inhibition by broth microdilution assay", "type": "functional"}, "[16]": {"assay": "Selectivity ratio of HC50 for hemolytic activity in human RBC to MIC for antifungal activity against Mucor racemosus MZ140", "type": "toxicity", "details": "red blood cells (erythrocytes)"}, "Aspergillus fumigatus [17]": {"test_system": "Aspergillus fumigatus", "assay": "Antifungal activity against Aspergillus fumigatus shjt40 assessed as fungal growth inhibition by broth microdilution assay", "type": "functional"}, "[18]": {"assay": "Selectivity ratio of HC50 for hemolytic activity in human RBC to MIC for antifungal activity against Candida parapsilosis ATCC 22019", "type": "toxicity", "details": "red blood cells (erythrocytes)"}, "Candida albicans [19]": {"test_system": "Candida albicans", "assay": "Antifungal activity against Candida albicans CARG5 infected in BALB/c mouse surgical wound model assessed as reduction in fungal burden smeared on wound at 8 mg/kg administered every 12 hrs for 48 hrs in presence of fluconazole", "type": "functional, organism-based"}, "[20]": {"assay": "Selectivity ratio of HC50 for hemolytic activity in human RBC to MIC for antifungal activity against Mucor racemosus R715", "type": "toxicity", "details": "red blood cells (erythrocytes)"}, "[21]": {"assay": "Selectivity ratio of HC50 for hemolytic activity in human RBC to MIC for antifungal activity against Cryptococcus gattii R265", "type": "toxicity", "details": "red blood cells (erythrocytes)"}, "Candida albicans [22]": {"test_system": "Candida albicans", "assay": "Antifungal activity against Candida albicans 28A assessed as fungal growth inhibition by broth microdilution assay", "type": "functional"}, "Candida albicans [23]": {"test_system": "Candida albicans", "assay": "Potentiation of antifungal activity against fluconazole-sensitive Candida albicans YEM12 overexpressing efflux pump MDR1 gene assessed as fold reduction in fluconazole MIC at 1 ug/ml incubated for 24 hrs by checkerboard broth microdilution assay", "type": "functional", "details": "dose 1 µg/ml"}, "[24]": {"assay": "Selectivity ratio of HC50 for hemolytic activity in human RBC to MIC for antifungal activity against Candida albicans CARG5", "type": "toxicity", "details": "red blood cells (erythrocytes)"}, "[25]": {"assay": "Selectivity ratio of HC50 for hemolytic activity in human RBC to MIC for antifungal activity against Candida albicans SC5314", "type": "toxicity", "details": "red blood cells (erythrocytes)"}, "Candida albicans [26]": {"test_system": "Candida albicans", "assay": "Antifungal activity against Candida albicans CA17 assessed as fungal growth inhibition by broth microdilution assay", "type": "functional"}, "[27]": {"assay": "Selectivity ratio of HC50 for hemolytic activity in human RBC to MIC for antifungal activity against Candida krusei ATCC6258", "type": "toxicity", "details": "red blood cells (erythrocytes)"}, "[28]": {"assay": "Toxicity against Galleria mellonella larva infected with Candida albicans SC5314 assessed as increase in survival rate at 8 mg/kg measured for 14 days", "type": "organism-based", "details": "in vivo, 336 h, time 14 day"}, "Candida albicans [29]": {"test_system": "Candida albicans", "assay": "Induction of reactive oxygen species generation in Candida albicans SC5314 assessed as increase in fluorescence intensity incubated for 1 hr by DCF-DA staining based method", "type": "functional, organism-based", "details": "DDE = dose-dependent effect"}, "[30]": {"test_system": "Cryptococcus deuterogattii", "assay": "Antifungal activity against Cryptococcus gattii VGII R265 assessed as fungal growth inhibition by broth microdilution assay", "type": "functional, Cryptococcus gattii species complex"}, "Mucor racemosus [31]": {"test_system": "Mucor racemosus", "assay": "Antifungal activity against Mucor racemosus R715 assessed as fungal growth inhibition by broth microdilution assay", "type": "functional"}, "Candida albicans [32]": {"test_system": "Candida albicans", "assay": "Synergistic antifungal activity against fluconazole-resistant Candida albicans CARG5 assessed as fractional inhibitory concentration index incubated for 24 hrs by checkerboard broth microdilution assay", "type": "functional"}, "Mucor racemosus [33]": {"test_system": "Mucor racemosus", "assay": "Antifungal activity against Mucor racemosus MZ140 assessed as fungal growth inhibition by broth microdilution assay", "type": "functional"}, "Candida albicans [34]": {"test_system": "Candida albicans", "assay": "Fungicidal activity against Candida albicans SC5314 assessed as fungal growth inhibition incubated for 24 hrs by resazurin dye based assay", "type": "functional"}, "Cryptococcus neoformans [35]": {"test_system": "Cryptococcus neoformans", "assay": "Fungicidal activity against Cryptococcus neoformans H99 at 4 times MIC50 measured after 10 to 25 mins by time-kill assay", "type": "functional, organism-based", "details": "time 10-25 min"}, "[36]": {"assay": "Selectivity ratio of HC50 for hemolytic activity in human RBC to MIC for antifungal activity against Cryptococcus neoformans H99", "type": "toxicity", "details": "red blood cells (erythrocytes)"}, "[37]": {"assay": "Selectivity ratio of HC50 for hemolytic activity in human RBC to MIC for antifungal activity against Aspergillus fumigatus AF293", "type": "toxicity", "details": "red blood cells (erythrocytes)"}, "Candida albicans [38]": {"test_system": "Candida albicans", "assay": "Fungicidal activity against Candida albicans SC5314 at 8 times MIC50 measured after 10 mins by time-kill assay", "type": "functional, organism-based"}, "Cryptococcus neoformans [39]": {"test_system": "Cryptococcus neoformans", "assay": "Antifungal activity against Cryptococcus neoformans 5-FC assessed as fungal growth inhibition by broth microdilution assay", "type": "functional"}, "Cryptococcus neoformans [40]": {"test_system": "Cryptococcus neoformans", "assay": "Fungicidal activity against Cryptococcus neoformans H99 at 8 times of MIC measured after 10 to 25 mins by time-kill assay", "type": "functional, organism-based", "details": "time 10-25 min"}, "Aspergillus fumigatus [41]": {"test_system": "Aspergillus fumigatus", "assay": "Antifungal activity against Aspergillus fumigatus AF293 assessed as fungal growth inhibition by broth microdilution assay", "type": "functional"}}, "note": "Calls of active or inactive are those of the source. No cut-off for these calls is given here.", "data": [{"smiles": "CCCCCCCCCCCCCCCC(=O)N[C@@H](CCCN)C(=O)N[C@@H](Cc1ccccc1)CN(CC(N)=O)C(=O)CCN", "values": [{"measurement": "selectivity ratio", "setting": "[1]", "value": "≤ 125"}, {"measurement": "MIC50", "setting": "Cryptococcus neoformans [2]", "value": 2, "unit": "µg/mL"}, {"measurement": "Activity", "setting": "Cell membrane [3]", "value": "Active"}, {"measurement": "selectivity ratio", "setting": "[4]", "value": "≤ 125"}, {"measurement": "selectivity ratio", "setting": "[5]", "value": "≤ 125"}, {"measurement": "MIC50", "setting": "Candida parapsilosis", "value": 2, "unit": "µg/mL"}, {"measurement": "Activity", "setting": "Candida albicans [6]", "value": "Active"}, {"measurement": "MIC50", "setting": "Candida albicans [7]", "value": 2, "unit": "µg/mL"}, {"measurement": "IC50 at 48 h", "setting": "[8]", "value": 32.2, "unit": "µg/mL"}, {"measurement": "MIC50", "setting": "Candida albicans [9]", "value": 2, "unit": "µg/mL"}, {"measurement": "Activity", "setting": "Candida albicans [10]", "value": "Active"}, {"measurement": "Activity", "setting": "Cell membrane [11]", "value": "Active"}, {"measurement": "HC50 at 1 h", "setting": "[12]", "value": "> 250", "unit": "µg/mL"}, {"measurement": "MIC50", "setting": "Candida albicans [13]", "value": 1, "unit": "µg/mL"}, {"measurement": "selectivity ratio", "setting": "[14]", "value": "≤ 125"}, {"measurement": "fold change (FC)", "setting": "Candida albicans [15]", "value": 8}, {"measurement": "MIC50", "setting": "Pichia kudriavzevii", "value": 2, "unit": "µg/mL"}, {"measurement": "selectivity ratio", "setting": "[16]", "value": "≤ 125"}, {"measurement": "MIC50", "setting": "Aspergillus fumigatus [17]", "value": 4, "unit": "µg/mL"}, {"measurement": "selectivity ratio", "setting": "[18]", "value": "≤ 125"}, {"measurement": "Activity", "setting": "Candida albicans [19]", "value": "Active"}, {"measurement": "selectivity ratio", "setting": "[20]", "value": "≤ 125"}, {"measurement": "selectivity ratio", "setting": "[21]", "value": "≤ 125"}, {"measurement": "MIC50", "setting": "Candida albicans [22]", "value": 2, "unit": "µg/mL"}, {"measurement": "fold change (FC)", "setting": "Candida albicans [23]", "value": 2}, {"measurement": "selectivity ratio", "setting": "[24]", "value": "≤ 125"}, {"measurement": "selectivity ratio", "setting": "[25]", "value": "≤ 125"}, {"measurement": "MIC50", "setting": "Candida albicans [26]", "value": 2, "unit": "µg/mL"}, {"measurement": "selectivity ratio", "setting": "[27]", "value": "≤ 125"}, {"measurement": "Activity", "setting": "[28]", "value": "Non-Toxic"}, {"measurement": "Activity", "setting": "Candida albicans [29]", "value": "Dde"}, {"measurement": "MIC50", "setting": "[30]", "value": 2, "unit": "µg/mL"}, {"measurement": "MIC50", "setting": "Mucor racemosus [31]", "value": 4, "unit": "µg/mL"}, {"measurement": "fractional inhibitory concentration index (FICI)", "setting": "Candida albicans [32]", "value": "<=0.5"}, {"measurement": "MIC50", "setting": "Mucor racemosus [33]", "value": 8, "unit": "µg/mL"}, {"measurement": "MFC", "setting": "Candida albicans [34]", "value": 4, "unit": "µg/mL"}, {"measurement": "Activity", "setting": "Cryptococcus neoformans [35]", "value": "Active"}, {"measurement": "selectivity ratio", "setting": "[36]", "value": "≤ 125"}, {"measurement": "selectivity ratio", "setting": "[37]", "value": "≤ 125"}, {"measurement": "Activity", "setting": "Candida albicans [38]", "value": "Active"}, {"measurement": "MIC50", "setting": "Cryptococcus neoformans [39]", "value": 2, "unit": "µg/mL"}, {"measurement": "Activity", "setting": "Cryptococcus neoformans [40]", "value": "Active"}, {"measurement": "MIC50", "setting": "Aspergillus fumigatus [41]", "value": 4, "unit": "µg/mL"}]}]}
